pIC50: −log10 of the molar value.

17 molecules from patent US10385031B2, “Substituted piperazines as selective HDAC1,2 inhibitors” (Regenacy Pharmaceuticals, LLC, priority 2016, dated 2019) can be followed below.

The target of data set [1] is hERG (Homo sapiens (Human), UniProt Q12809). Nature of the data set: hERG inhibition, whole-cell patch clamp. Particulars: HEK293 cells stably transfected with hERG. The data set is classed as cell-based. (In general: The hERG channel carries a current that helps repolarise heart muscle cells.)
Chain of hERG (Q12809 whole entry): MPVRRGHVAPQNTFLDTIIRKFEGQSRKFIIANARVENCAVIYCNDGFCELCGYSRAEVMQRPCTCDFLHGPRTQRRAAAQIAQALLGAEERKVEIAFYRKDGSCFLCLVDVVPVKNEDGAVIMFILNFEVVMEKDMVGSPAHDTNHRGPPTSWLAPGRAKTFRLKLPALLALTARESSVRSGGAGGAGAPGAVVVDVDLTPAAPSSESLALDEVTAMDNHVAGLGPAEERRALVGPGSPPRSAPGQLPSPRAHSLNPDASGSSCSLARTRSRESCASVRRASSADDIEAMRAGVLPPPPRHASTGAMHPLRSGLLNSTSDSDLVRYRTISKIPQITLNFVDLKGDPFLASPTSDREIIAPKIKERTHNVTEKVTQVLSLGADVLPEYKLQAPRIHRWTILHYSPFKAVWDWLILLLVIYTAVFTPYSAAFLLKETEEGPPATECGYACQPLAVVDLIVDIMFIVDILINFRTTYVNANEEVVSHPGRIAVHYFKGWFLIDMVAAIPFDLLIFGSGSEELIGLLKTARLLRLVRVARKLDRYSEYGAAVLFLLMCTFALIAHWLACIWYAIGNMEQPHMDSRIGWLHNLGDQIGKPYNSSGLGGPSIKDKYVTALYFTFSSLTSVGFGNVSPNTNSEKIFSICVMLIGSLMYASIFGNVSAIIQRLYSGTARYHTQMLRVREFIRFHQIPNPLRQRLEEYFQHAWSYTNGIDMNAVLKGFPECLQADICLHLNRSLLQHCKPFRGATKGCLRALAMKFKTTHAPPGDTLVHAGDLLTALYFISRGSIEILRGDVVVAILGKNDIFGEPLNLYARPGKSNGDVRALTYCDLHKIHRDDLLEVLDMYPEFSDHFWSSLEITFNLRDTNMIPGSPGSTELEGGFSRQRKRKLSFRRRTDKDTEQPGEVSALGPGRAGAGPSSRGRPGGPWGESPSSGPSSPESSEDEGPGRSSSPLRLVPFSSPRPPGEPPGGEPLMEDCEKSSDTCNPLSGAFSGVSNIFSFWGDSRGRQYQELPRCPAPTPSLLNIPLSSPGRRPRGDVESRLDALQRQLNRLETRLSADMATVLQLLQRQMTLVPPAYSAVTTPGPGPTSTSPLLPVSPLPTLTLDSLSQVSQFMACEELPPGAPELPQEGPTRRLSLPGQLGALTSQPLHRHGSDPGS
Experimental: For hERG inhibition assays, the cells used were HEK293 cells stably transfected with hERG (cell line obtained from Cytocentrics Inc. 3463 Magic Drive San Antonio, Tex. 78229). Composition of External Solution: NaCl, 137 mM; KCl, 4 mM; MgCl2, 1.0 mM; CaCl2, 1.8 mM; HEPES 10 mM; Dextrose 11 mM; Adjusted to a pH of 7.4 with NaOH. Composition of Internal Solution: KCl, 130.0 mM; MgCl2, 1.0 mM; HEPES, 5.0 mM; EGTA, 5.0 mM; NaCl 7.0 mM. Adjusted to a pH of 7.2 using KOH. Test Concentrations: 0.1, 1, 10, 100 μM. Vehicle: DMSO. Experiments were performed at 34+/−1° C. Current was recorded using the whole-cell patch clamp technique on the Cytopatch automated platform. hERG current was elicited with the following voltage protocol: hERG current amplitude was measured as the peak current at −50 mV (tail current). […] Each cell served as its own control. Data are presented as the IC50 calculated by non-linear regression analysis.
For data set [2], the system named is CYP1A2, CYP2C9, CYP2C19, CYP3A4, CYP2D6. Nature of the data set: Cyp inhibition in human liver microsomes (all isozymes). The data set is classed as in vitro ADME. Here is the method:
For Cyp inhibition, human liver microsomes from BD Gentest were incubated with Compound 028 or Compound 032 (10, 3.33, 1.11, 0.37, 0.12, 0.04, 0.01 μM) and substrate (CYP1A2: Phenacetin at 30 μM; CYP2C9: Diclofenac at 10 μM; CYP2C19: S-Mephenytoin at 35 μM; CYP3A4: Midazolam at 5 μM and Testosterone at 80 μM; CYP2D6: Bufuralol at 10 μM) for the following incubation times: CYP1A2, 2C9, 2D6: 10 minutes, 37° C.; CYP2C19: 45 minutes, 37° C.; CYP3A4: 5 minutes, 37° C. Substrate conversion was measured by liquid chromatography/mass spectrometry/mass spectrometry (LC/MS/MS). Inhibition was calculated by curve fitting in Graph Pad Prism.
(In general: Microsomes from liver hold many membrane-bound enzymes, among them those of drug oxidation.)

The nature of data set [3]: Rat pharmacokinetics, cassette dosing (IV and PO). Particulars: male SD rats; for bioavailability / IV clearance / AUC / Cmax / half-life: rat; for bioavailability: 5 mg/kg; for half-life: read-out: PO T½ (converted). The data set is classed as in vivo. The method, then:
Male SD rats were fasted overnight. Compounds of the invention were dissolved in dimethyl acetamide at 10 times the final concentration, then Solutol HS 15 (BASF) was added to a final concentration of 10%. Finally 80% saline was added and vortexed to achieve a clear solution. For the IV dosing three animals were injected via the foot dorsal vein with 1 mg/kg compound. For the PO dosing 5 mg/kg of compound was delivered by oral gavage. Blood was collected via the tail vein into K2EDTA tubes at 5 minutes, 15 minutes, 30 minutes, 1 hour, 2 hours, 4 hours, 8 hours and 24 hours after dosing. The blood was centrifuged at 2000 g for 5 minutes at 4° C. to obtain plasma. The plasma was extracted with acetonitrile and the level of compound was analyzed by LC/MS/MS. The level of compound in plasma was calculated from a standard curve in rat plasma. The IV clearance (L/h/kg) and area under the curve (h*ng/mL) were calculated using WinNonLin software. The dose adjusted area under the curve for the IV and oral dosing were used to calculate the oral bioavailability.
Pharmacokinetic properties were assessed in a rat cassette dosing experiment. The IV clearance (IV Clr.) is in units of L/hr/kg. The oral maximum plasma concentration (PO Cmax) is in units of ng/ml. The oral plasma half-life (PO T½) is in units of hours. The oral area under the curve (PO AUC) is in units of hours*ng/ml. The fraction absorbed by the oral route (F %) is a percentage of the oral area under the curve to the IV area under the curve, dose adjusted.

The target in data set [4] is HDAC1 (Homo sapiens (Human), UniProt Q13547). The data set is described as follows: HDAC enzyme assay HDAC1. The data set is classed as biochemical.
Chain of HDAC1 (Q13547 whole entry): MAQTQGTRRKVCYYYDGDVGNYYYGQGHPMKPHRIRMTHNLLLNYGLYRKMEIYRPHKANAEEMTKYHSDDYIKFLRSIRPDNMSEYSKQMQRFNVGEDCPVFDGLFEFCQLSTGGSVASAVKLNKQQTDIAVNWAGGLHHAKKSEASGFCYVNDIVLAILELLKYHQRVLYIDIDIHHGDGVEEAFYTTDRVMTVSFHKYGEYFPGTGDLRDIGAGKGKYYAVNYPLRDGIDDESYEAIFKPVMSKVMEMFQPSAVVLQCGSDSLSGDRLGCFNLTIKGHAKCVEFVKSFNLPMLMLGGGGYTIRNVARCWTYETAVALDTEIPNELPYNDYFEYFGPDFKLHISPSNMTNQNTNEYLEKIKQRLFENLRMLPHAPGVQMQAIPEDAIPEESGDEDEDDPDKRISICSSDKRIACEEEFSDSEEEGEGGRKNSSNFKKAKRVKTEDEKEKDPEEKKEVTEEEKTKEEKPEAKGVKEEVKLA
Data set [5] concerns the target HDAC2 (Homo sapiens (Human), UniProt Q92769). Nature of the data set: HDAC enzyme assay HDAC2. The data set is classed as biochemical. The method, then: Compounds for testing were diluted in DMSO to 50 fold the final concentration and a ten-point three-fold dilution series was made. The compounds were diluted in assay buffer (50 mM HEPES, pH 7.4, 100 mM KCl, 0.001% Tween-20, 0.05% BSA, 20 μM TCEP) to 6-fold their final concentration. The HDAC enzymes (purchased from BPS Biosciences) were diluted to 1.5-fold their final concentration in assay buffer. The tripeptide substrate and trypsin at 0.05 μM final concentration were diluted in assay buffer at 6-fold their final concentration. The final enzyme concentrations used in these assays were 3.3 ng/ml (HDAC1), 0.2 ng/ml (HDAC2) and 0.08 ng/ml (HDAC3). The final substrate concentrations used were 16 μM (HDAC1), 10 μM (HDAC2) and 17 μM (HDAC3).
Five μl of compounds and 20 μl of enzyme were added to wells of a black, opaque 384 well plate in duplicate. Enzyme and compound were incubated together at room temperature for 10 minutes. Five μl of substrate was added to each well, the plate was shaken for 60 seconds and placed into a Victor 2 microtiter plate reader. The development of fluorescence was monitored for 60 min and the linear rate of the reaction was calculated. The IC50 was determined using Graph Pad Prism by a four parameter curve fit.

Data set [6] addresses HDAC3 (Homo sapiens (Human), UniProt O15379). Nature of the data set: HDAC enzyme assay HDAC3. The data set is classed as biochemical. Here is the method: Compounds for testing were diluted in DMSO to 50 fold the final concentration and a ten-point three-fold dilution series was made. The compounds were diluted in assay buffer (50 mM HEPES, pH 7.4, 100 mM KCl, 0.001% Tween-20, 0.05% BSA, 20 μM TCEP) to 6-fold their final concentration. The HDAC enzymes (purchased from BPS Biosciences) were diluted to 1.5-fold their final concentration in assay buffer. The tripeptide substrate and trypsin at 0.05 μM final concentration were diluted in assay buffer at 6-fold their final concentration. The final enzyme concentrations used in these assays were 3.3 ng/ml (HDAC1), 0.2 ng/ml (HDAC2) and 0.08 ng/ml (HDAC3). The final substrate concentrations used were 16 μM (HDAC1), 10 μM (HDAC2) and 17 μM (HDAC3). Five μl of compounds and 20 μl of enzyme were added to wells of a black, opaque 384 well plate in duplicate. Enzyme and compound were incubated together at room temperature for 10 minutes. Five μl of substrate was added to each well, the plate was shaken for 60 seconds and placed into a Victor 2 microtiter plate reader. The development of fluorescence was monitored for 60 min and the linear rate of the reaction was calculated. The IC50 was determined using Graph Pad Prism by a four parameter curve fit. In Table 4 below, letter designations are defined as follows: […]

In data set [7] the target is CYP3A4 (Homo sapiens (Human), UniProt P08684). The data set is described as follows: Cyp inhibition in human liver microsomes (3A4/midazolam). The data set is classed as in vitro ADME. The method, then:
CYP2C9: Diclofenac at 10 μM; CYP2C19: S-Mephenytoin at 35 μM; CYP3A4: Midazolam at 5 μM and Testosterone at 80 μM; CYP2D6: Bufuralol at 10 μM) for the following incubation times: CYP1A2, 2C9, 2D6: 10 minutes, 37° C.; CYP2C19: 45 minutes, 37° C.; CYP3A4: 5 minutes, 37° C. Substrate conversion was measured by liquid chromatography/mass spectrometry/mass spectrometry (LC/MS/MS). Inhibition was calculated by curve fitting in Graph Pad Prism.

Setting [8] is: plasma, oral AUC to IV AUC, dose adjusted.

Chain of HDAC2 (Q92769 whole entry): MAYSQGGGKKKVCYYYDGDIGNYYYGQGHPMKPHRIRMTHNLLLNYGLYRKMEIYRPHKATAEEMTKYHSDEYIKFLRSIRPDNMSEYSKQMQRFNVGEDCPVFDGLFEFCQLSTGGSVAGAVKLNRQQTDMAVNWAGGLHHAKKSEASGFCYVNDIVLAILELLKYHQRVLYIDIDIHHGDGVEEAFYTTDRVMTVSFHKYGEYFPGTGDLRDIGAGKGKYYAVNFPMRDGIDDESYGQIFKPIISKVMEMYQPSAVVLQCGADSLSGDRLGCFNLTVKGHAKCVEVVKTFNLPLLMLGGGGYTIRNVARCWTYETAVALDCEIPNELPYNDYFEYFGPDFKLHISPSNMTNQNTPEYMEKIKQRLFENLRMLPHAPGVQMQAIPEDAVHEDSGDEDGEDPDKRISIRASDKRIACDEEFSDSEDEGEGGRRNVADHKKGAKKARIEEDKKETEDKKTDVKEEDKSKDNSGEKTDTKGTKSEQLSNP
Chain of HDAC3 (O15379 whole entry): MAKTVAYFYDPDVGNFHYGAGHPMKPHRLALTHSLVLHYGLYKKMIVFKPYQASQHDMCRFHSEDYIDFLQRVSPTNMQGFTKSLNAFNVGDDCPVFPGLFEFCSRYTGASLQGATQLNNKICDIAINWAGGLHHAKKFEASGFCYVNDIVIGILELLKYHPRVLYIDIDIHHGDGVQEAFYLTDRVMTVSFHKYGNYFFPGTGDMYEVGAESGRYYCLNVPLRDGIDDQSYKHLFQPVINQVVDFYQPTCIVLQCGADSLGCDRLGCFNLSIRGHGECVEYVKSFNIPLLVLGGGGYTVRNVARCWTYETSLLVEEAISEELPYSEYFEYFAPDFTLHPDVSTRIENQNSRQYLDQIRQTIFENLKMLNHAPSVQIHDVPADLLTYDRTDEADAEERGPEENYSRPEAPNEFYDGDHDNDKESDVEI
Chain of HDAC3 (Q9Y618 395-489 partner): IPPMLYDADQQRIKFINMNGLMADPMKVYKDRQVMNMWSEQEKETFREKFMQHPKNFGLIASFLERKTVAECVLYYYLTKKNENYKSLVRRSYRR
Chain of CYP3A4 (P08684 whole entry): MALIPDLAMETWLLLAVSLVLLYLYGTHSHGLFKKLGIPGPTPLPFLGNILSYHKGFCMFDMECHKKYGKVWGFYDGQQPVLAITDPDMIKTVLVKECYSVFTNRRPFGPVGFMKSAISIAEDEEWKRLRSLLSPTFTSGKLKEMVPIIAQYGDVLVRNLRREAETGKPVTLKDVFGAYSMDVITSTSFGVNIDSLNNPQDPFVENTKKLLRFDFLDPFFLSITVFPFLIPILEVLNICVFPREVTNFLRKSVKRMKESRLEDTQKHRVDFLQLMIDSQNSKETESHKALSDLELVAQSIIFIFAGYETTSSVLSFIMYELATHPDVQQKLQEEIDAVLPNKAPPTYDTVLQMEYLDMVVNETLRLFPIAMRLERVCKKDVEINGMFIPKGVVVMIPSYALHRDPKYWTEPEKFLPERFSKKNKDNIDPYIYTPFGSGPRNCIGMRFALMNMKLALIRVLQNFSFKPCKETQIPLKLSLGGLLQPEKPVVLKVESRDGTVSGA

Take `Nc1ccc(-c2cccs2)cc1NC(=O)c1ccc(N2CCNCC2)nc1` [Compound 007]: the negative logarithm of the IC50 (pIC50) in data set [1] (34 °C, tail current) was 5.07; in data set [2], less than 5.00.

In turn, `CN1CCN(c2ccc3cc(C(=O)Nc4cc(-c5ccco5)ccc4N)ncc3c2)CC1` [Compound 029] gave a pIC50 in data set [1] (34 °C, tail current) of 5.28.

On to `CN1CCN(c2ncc(C(=O)Nc3cc(-c4cccs4)ccc3N)s2)CC1` [Compound 030], for which, in data set [3] (IV 1 mg/kg, plasma), the “IV Clr.” value came to 8 mL/min/kg. In data set [3] (PO 5 mg/kg, plasma), the “PO AUC” value amounted to 15260 ng·h/mL, the “PO Cmax” value amounted to 944 ng/mL and the “PO T½” value stood at 12.8 h. The molecule further yielded a F % in data set [3] (oral AUC to IV AUC, dose adjusted) of 170%. In data set [2], this molecule showed a pIC50 of less than 5.00.

In data set [2], `Nc1ccc(-c2ccoc2)cc1NC(=O)c1cnc2cc(N3CCNCC3)ccc2c1` [Compound 025] showed a negative-log IC50 (pIC50) of less than 5.00.

Regarding `Cc1nc(N2CCNCC2)sc1C(=O)Nc1cc(-c2cccs2)ccc1N` [Compound 031], the pIC50 in data set [1] (34 °C, tail current) is 4.92; in data set [2], less than 5.00.

As for `Nc1ccc(-c2ccccc2)cc1NC(=O)c1cc2ccc(N3CCNCC3)cc2cn1` [Compound 022], the bioavailability in data set [3] (setting [8]) was found to be 195%. The molecule further had an IV clearance in data set [3] (IV 1 mg/kg, plasma) of 16.3 mL/min/kg. Also, in data set [3] (PO 5 mg/kg, plasma), the exposure (AUC) worked out at 8180 ng·h/mL, the concentration peaked (Cmax) at 517 ng/mL and the half-life is 13.5 h. In data set [1] (34 °C, tail current), this molecule had a pIC50 of 6.40. In addition, in data set [2], the pIC50 was less than 5.00.

For `Nc1ccc(-c2ccccc2)cc1NC(=O)c1ccc(N2CCNCC2)nc1` [Compound 006], the pIC50 in data set [1] (34 °C, tail current) is 5.29; in data set [2] it was less than 5.00.

As to `Nc1ccc(-c2cccs2)cc1NC(=O)c1cnc(N2CCNCC2)cn1` [Compound 040], the bioavailability in data set [3] (setting [8]) was determined as 151%. This molecule also showed an IV clearance in data set [3] (IV 1 mg/kg, plasma) of 26.7 mL/min/kg. Further, in data set [3] (PO 5 mg/kg, plasma), the AUC is 3340 ng·h/mL, the concentration peaked (Cmax) at 211 ng/mL and the half-life is 16.7 h. Besides, the pIC50 in data set [4] is more than 8.00. This molecule showed a pIC50 in data set [5] of more than 8.00. The pIC50 in data set [6] was 6.30 to 8.00.

With `Nc1ccccc1NC(=O)c1ccc2nc(N3CCNCC3)ccc2c1` [Compound 001], in data set [1] (34 °C, tail current), the pIC50 was less than 4.52.

As for `Nc1ccc(-c2ccc(F)cc2)cc1NC(=O)c1ccc(N2CCNCC2)cn1` [Compound 038], the negative logarithm of the IC50 (pIC50) in data set [1] (unit inferred) is 5.60; in data set [4], more than 8.00; in data set [5], 6.30 to 8.00; in data set [6], 6.30 to 8.00.

Regarding `Nc1ccccc1NC(=O)c1cc2ccc(N3CCNCC3)cc2cn1` [Compound 021], in data set [3] (setting [8]), the bioavailability was determined as 89.8%. In data set [3] (IV 1 mg/kg, plasma), the IV clearance was 94.3 mL/min/kg. In data set [3] (PO 5 mg/kg, plasma), the AUC came out at 763 ng·h/mL, the Cmax was 68 ng/mL and the half-life is 3.2 h. The molecule further had a pIC50 in data set [1] (34 °C, tail current) of 5.38.

In data set [1] (34 °C, tail current), `Nc1ccc(-c2ccncc2)cc1NC(=O)c1cnc2cc(N3CCNCC3)ccc2c1` [Compound 026] had a pIC50 of less than 4.00.

For `Nc1ccc(-c2ccncc2)cc1NC(=O)c1cnc(N2CCNCC2)s1` [Compound 032], in data set [3] (setting [8]), the bioavailability turned out to be 9.7%. In data set [3] (IV 1 mg/kg, plasma), this molecule showed an IV clearance of 17.7 mL/min/kg. In data set [3] (PO 5 mg/kg, plasma), the AUC came out at 456 ng·h/mL, the Cmax stood at 173 ng/mL and the half-life was 4.3 h. In addition, the pIC50 in data set [1] (34 °C, tail current) is 4.92. Also, the pIC50 in data set [7] was 5.02.

As to `CN1CCN(c2ccc(C(=O)Nc3cc(-c4ccncc4)ccc3N)nc2)CC1` [Compound 028], the pIC50 was 4.42 in data set [1] (34 °C, tail current) and 5.23 in data set [7].

For `Nc1ccc(-c2ccco2)cc1NC(=O)c1ccc2nc(N3CCNCC3)ccc2c1` [Compound 003], the bioavailability in data set [3] (setting [8]) stood at 77%. This molecule had an IV clearance in data set [3] (IV 1 mg/kg, plasma) of 3.17 mL/min/kg. In data set [3] (PO 5 mg/kg, plasma), the AUC came out at 19100 ng·h/mL, the Cmax worked out at 1910 ng/mL and the half-life is 5 h. This molecule gave a pIC50 in data set [1] (34 °C, tail current) of 5.12. The same molecule had a pIC50 in data set [2] of less than 5.00.

In the case of `CN1CCN(c2ccc(C(=O)Nc3cc(-c4ccncc4)ccc3N)cn2)CC1` [Compound 027], the bioavailability in data set [3] (setting [8]) was found to be 78.6%. In addition, the IV clearance in data set [3] (IV 1 mg/kg, plasma) was 10.5 mL/min/kg. Further, in data set [3] (PO 5 mg/kg, plasma), the AUC amounted to 6190 ng·h/mL, the Cmax came to 839 ng/mL and the half-life was 3 h. Besides, the pIC50 in data set [1] (34 °C, tail current) is less than 4.00. In data set [2], this molecule gave a pIC50 of less than 5.00.

Regarding `Nc1ccc(-c2ccc(F)cc2)cc1NC(=O)c1ccc(N2CCNCC2)nc1` [Compound 036], the bioavailability in data set [3] (setting [8]) turned out to be 69.1%. This molecule also showed an IV clearance in data set [3] (IV 1 mg/kg, plasma) of 7 mL/min/kg. Moreover, in data set [3] (PO 5 mg/kg, plasma), the AUC came to 7280 ng·h/mL, the Cmax is 500 ng/mL and the half-life is 7.3 h. Besides, the pIC50 in data set [4] was more than 8.00. In data set [5], this molecule showed a negative logarithm of the IC50 (pIC50) of 6.30 to 8.00. In data set [6], this molecule gave a negative-log IC50 (pIC50) of 6.30 to 8.00.

The term pIC50 denotes −log10 of the IC50, conventionally taken in molar units. A high value points to a low IC50. Broadly, the AUC is the area under the concentration-time curve, a measure of exposure. High values mean high exposure, low ones low exposure. A word on the Cmax: it is the maximum level reached in the sampled fluid or tissue.
